Test results published in US20250325526A1, “USE OF TETRAHYDRONAPHTHYRIDINE DERIVATIVE FOR PREPARING PRODUCT FOR IMPROVING HYPERPIGMENTATION” (SCINNOHUB PHARMACEUTICAL CO., LTD, priority 2022, published 2025).

Assays:
Type in all cases: in vivo, SD rats
[1] = test system: tyrosinase; test: Rat melasma model: immunohistochemical staining of tyrosinase in skin; conditions: for tyrosinase expression in the skin tissues: vs model group, P<0.01; for tyrosinase positive rate in the skin tissues: immunohistochemistry, skin collected Day 58, vs model group, P<0.001
Description: (§1) 3.1 Modeling: Before the experiment, on Day 0, SD rats (purchased from Beijing Vital River Experimental Animal Technology Co., Ltd., SPF grade, female, 7-8 weeks old, weighing 200±20 g) were randomly grouped and numbered. The hairs on the backs of animals in each group were shaved using an electric shaver, and the short hairs on the skin were removed with a depilatory cream to fully expose the back skin. The hair removal area was slightly larger than the actual modeling area (5 cm×5 cm). Each rat was depilated once every 2-3 days to ensure that the back skin was fully exposed. On the next day (Day 1), rats in each group were weighed, and the weights were recorded when the electronic scale reading was stable. A progesterone injection was injected intramuscularly at the base of the rat's thigh (alternately between the thighs on both sides), with a drug concentration of 20 mg/mL and an injection dose of 25 mg/kg, once a day. After the intramuscular injection, the rat's back skin was irradiated with ultraviolet light at a wavelength of 280-320 nm. The light source was about 30 cm away from the rat's back skin, and the irradiation time lasted for 60 minutes each time, for a total of 4 weeks.
The injection volume was 0.05 mL/cm^2, 5 days each time, and the administration lasted for 30 days continuously. The animals in the control group (only depilated, without modeling) and the model group were given the solvent.
3.3 Detection of indicators: The first day of modeling was denoted as Day 1, and the experimental period lasted for 58 days. After the end of the experiment (Day 58), 1 hour after the last administration, the skin of the modeling area of the rats in each group was photographed for scoring of apparent indexes (scoring criteria was provided in Table 1). Then the rats in each group were euthanized, their backs were depilated, and 0.5 g of full-thickness skin tissue from the depilated back was taken and placed into an ice bath, and normal saline was added to make a 10% tissue homogenate. The homogenate was centrifuged at 3000 r/min at room temperature for 10 min to obtain a supernatant of skin tissue homogenate. ELISA was carried out to detect the expression of endothelin-1 in the supernatant of skin tissue homogenate. The skin of the modeling area on the back of rats was taken and immersed in 10% neutral formaldehyde for fixation at room temperature for 4 days. Four days later (Day 62), paraffin embedding and sectioning were performed to obtain paraffin sections of skin. The HE staining was performed to observe the pathological changes of the skin tissues of rats in each group. […]

[2] = test system: melanin granules; test: Rat melasma model: Fontana-Masson staining of melanin granules; conditions: for melanin granules in the skin tissue: skin collected Day 58, vs model group, tranexamic acid 5 mg/mL; for distribution of melanin granules: skin collected Day 58, tranexamic acid 5 mg/mL
Description: 3.3 Detection of indicators: The first day of modeling was denoted as Day 1, and the experimental period lasted for 58 days. […] Then the rats in each group were euthanized, their backs were depilated, and 0.5 g of full-thickness skin tissue from the depilated back was taken and placed into an ice bath, and normal saline was added to make a 10% tissue homogenate. The homogenate was centrifuged at 3000 r/min at room temperature for 10 min to obtain a supernatant of skin tissue homogenate. ELISA was carried out to detect the expression of endothelin-1 in the supernatant of skin tissue homogenate. The skin of the modeling area on the back of rats was taken and immersed in 10% neutral formaldehyde for fixation at room temperature for 4 days. Four days later (Day 62), paraffin embedding and sectioning were performed to obtain paraffin sections of skin. The HE staining was performed to observe the pathological changes of the skin tissues of rats in each group. Staining method: The dried paraffin sections were conventionally dewaxed with xylene, hydrated with descending gradient ethanol, and washed with distilled water; the nuclei were stained with hematoxylin for 2 minutes, differentiated with hydrochloric acid and alcohol for a few seconds, and washed with water to return to blue; the sections were stained with eosin stain for 1 minute, and the residual stain was washed with water; the sections were dehydrated and dried with gradient alcohol, transparentized with xylene, and blocked with neutral gum, then observed under microscope. The epidermal hyperplasia of the skin tissue sample sections, arrangement of basal cells, presence or absence of inflammatory cell infiltration in the dermis, and changes in the number of capillaries in all groups were observed according to the evaluation indexes. Fontana-Masson staining was performed to observe the skin pigmentation of the rats. […] An immunohistochemistrical assay was performed to detect the expression of tyrosinase in the skin in each group.

[3] = test system: rat models of melasma; test: Rat melasma model: HE staining of skin tissues; conditions: vs model group, tranexamic acid 5 mg/mL, compounds under test 5 mg/mL and 1.5 mg/mL
Description: as §1
(§2) The injection volume was 0.05 mL/cm^2, 5 days each time, and the administration lasted for 30 days continuously. […]

[4] = test system: endothelin-1; test: Rat melasma model: ELISA of ET-1 in supernatant of skin tissue homogenate; conditions: Day 58, vs model group, P<0.01, tranexamic acid 5 mg/mL, compounds under test 5 mg/mL and 1.5 mg/mL
Description: as §1, §2

[5] = test system: rat models of melasma; test: Rat melasma model (UVB irradiation + progesterone): apparent indexes, lesion color and area; conditions: Day 58, vs model group, P<0.05; local injection; tranexamic acid 5 mg/mL; compounds under test 5 mg/mL and 1.5 mg/mL
Description: as §1, §2

Structure (SMILES)	tyrosinase expression in the skin tissues ([1]; 1.5 mg/mL group)	tyrosinase expression in the skin tissues ([1]; 5 mg/mL group)	melanin granules in the skin tissue [2]	inflammatory cell infiltration [3]	thickness of the basal layer and stratum spinosum of the epidermal tissues [3]	ET-1 content in the skin tissue homogenate [4]	color of the lesion areas [5]	lesion area [5]	distribution of melanin granules [2]	tyrosinase positive rate in the skin tissues [1]
Cl.O=P(O)(O)c1ccc2c(n1)CCNC2 [compound under test 2, (5,6,7,8-tetrahydro-1,6-naphthyridin-2-yl)phosphonic acid hydrochloride]	significantly different from those in the model group	significantly different from those in the model group								
NC[C@H]1CC[C@H](C(=O)O)CC1 [tranexamic acid, Tranexamic acid]			reduced	improved	significantly reduced	significantly reduced	significantly lighter	significantly reduced		
Cl.O=C(O)c1ccc2c(n1)CCNC2 [compound under test 1, 5,6,7,8-tetrahydro-1,6-naphthyridine-2-carboxylic acid hydrochloride]			significantly reduced						distributed discontinuously only in the basal layer	significantly reduced
Cl.O=S(=O)(O)c1ccc2c(n1)CC(CCCc1ccccc1)NC2 (centres unmarked) [compound under test 3, 7-(3-phenylpropyl)-5,6,7,8-tetrahydro-1,6-naphthyridine-2-sulfonic acid hydrochloride]			significantly reduced						distributed discontinuously only in the basal layer	significantly reduced
